Test results taken from patent publication US5545618A, “GLP-1 analogs useful for diabetes treatment” (priority 1993, dated 1996).
Where two headings read alike, the source gives them in different places.

What was measured:
[1] = degradation in plasma by RP-HPLC; type: in vitro ADME; settings: incubation in plasma for 60 minutes; further: key: +: degradation was not observed; -: was complete after this time
Procedure: In this assay, the analog is added to plasma for various times and recovered similarly to the method described above for radiolabel sequencing analysis. Specifically, the analog at a concentration of 100 nM in RIA buffer is spiked into 1 mL plasma to a final concentration of 1 nM and after incubation in 37° C. circulating water bath for various preset times, the reaction is stopped by bringing the plasma to 0.1% (w/v) in bacitracin.
The peptides are then purified by Sep-Pak extraction as described above. The eluates are concentrated to about 1 mL on a Speed-vac, diluted with 1 mL distilled water, frozen at 80° C. and lyophilized overnight. The powder is resuspended in 0.5 mL Buffer C (0.1% TFA in water) per mL starting plasma and 0.25 mL are injected on a Hewlett-Packard 109OL liquid chromatograph using an Alltech C18 column (0.45×25 cm; 10 μm particle size) with a Brownlee 2 cm C18 guard column. The extraction is monitored at OD214 throughout the run and the solvent flow rate was 1 mL/minute. A gradient between Buffer C and Buffer D (0.1% TFA in acetonitrile) is set up over a 40 minute run time. The gradient starts at 35% D is held for the first 2 minutes after injection and then increased to 42% D over 24 minutes. The gradient is then increased to 60% D over the next two minutes, held at this level for 2 minutes and returned to 35% D over the next 2 minutes. The % D remains at 35% for the remaining 8 minutes of the run. Fractions are collected at 0.5 minute intervals for the first 30 minutes of each run and dried in a Speed-vac.

[2] = system: RIN 1046-38 cells
Procedure: An additional test for potency of the compounds of the invention measures their ability to stimulate cAMP production in RIN 1046-38 cells. This assay can be conducted as follows:
On day 1, 5×10^5 RIN 1046-38 cells (Drucker, D. J., et al., Proc Natl Acad Sci USA (1987) 84:3434-3438) are seeded into individual wells of 6-well dishes with 2.5 mL M199 culture medium. On day 4, cells are re-fed with fresh medium and on day 5 the assay is performed. […] Assays are only performed on cell passage ≤24.
At time -60 min, monolayers are washed twice with 2.5 mL PBS, and medium is changed to 1.0 mL of DMEM medium plus 4.5 g/l glucose and 0.1% BSA (assay medium). At 0 time, medium is aspirated and fresh assay medium, 1.0 mL, containing test compound is added. Test compound is added in 50 ul volume of PBS plus 0.1% BSA; controls are added in vehicle alone. Incubation is continued for 0 to 60 min.
At termination, conditioned medium and monolayer are harvested to measure both extra- and intracellular cAMP content. For extracellular measurement, medium is removed and centrifuged to remove any cellular debris. For intracellular determination, after medium removal, 1.0 mL of ice cold 95% ethanol is added to monolayer. Cells are collected by scraping, lysed by two cycles of quick freeze/thawing using liquid N2, and cell debris then removed by centrifugation. Aliquots (1/40th well content) of conditioned medium and ethanol cell extract are measured in duplicate for cAMP levels using an RIA kit by the acetylated protocol.
Insulin secretion can also be measured by the method described by Holst, J. J., et al. FEBS Letters (1987) 211:169-174 (supra). Also useful as an assay for insulinotropic effect is the measurement of stimulation of adenylate cyclase in the RIN 1046-38 cell line. Drucker, D. J. et al., Proc Natl Acad Sci USA (1987) 84:3434-3438 (supra).

Resistance to Degradation [1]	Molecule	ED50 nM Duplicate Assays (first value) [2]	ED50 nM Duplicate Assays (second value) [2]	further results
-	CC[C@H](C)[C@H](NC(=O)[C@H](Cc1ccccc1)NC(=O)[C@H](CCC(=O)O)NC(=O)[C@H](CCCCN)NC(=O)[C@H](C)NC(=O)[C@H](C)NC(=O)[C@H](CCC(N)=O)NC(=O)CNC(=O)[C@H](CCC(=O)O)NC(=O)[C@H](CC(C)C)NC(=O)[C@H](Cc1ccc(O)cc1)NC(=O)[C@H](CO)NC(=O)[C@H](CO)NC(=O)[C@@H](NC(=O)[C@H](CC(=O)O)NC(=O)[C@H](CO)NC(=O)[C@@H](NC(=O)[C@H](Cc1ccccc1)NC(=O)[C@@H](NC(=O)CNC(=O)[C@H](CCC(=O)O)NC(=O)[C@H](C)NC(=O)[C@@H](N)CCCCN)[C@@H](C)O)[C@@H](C)O)C(C)C)C(=O)N[C@@H](C)C(=O)N[C@@H](Cc1c[nH]c2ccccc12)C(=O)N[C@@H](CC(C)C)C(=O)N[C@H](C(=O)N[C@@H](CCCCN)C(=O)NCC(=O)N[C@@H](CCCNC(=N)N)C(=O)NCC(=O)O)C(C)C [(K)^7 -GLP-1(7-37)]			
+	CC[C@H](C)[C@H](NC(=O)[C@H](Cc1ccccc1)NC(=O)[C@H](CCC(=O)O)NC(=O)[C@H](CCCCN)NC(=O)[C@H](C)NC(=O)[C@H](C)NC(=O)[C@H](CCC(N)=O)NC(=O)CNC(=O)[C@H](CCC(=O)O)NC(=O)[C@H](CC(C)C)NC(=O)[C@H](Cc1ccc(O)cc1)NC(=O)[C@H](CO)NC(=O)[C@H](CO)NC(=O)[C@@H](NC(=O)[C@H](CC(=O)O)NC(=O)[C@H](CO)NC(=O)[C@@H](NC(=O)[C@H](Cc1ccccc1)NC(=O)[C@@H](NC(=O)CNC(=O)[C@H](CCC(=O)O)NC(=O)[C@H](C)NC(=O)[C@H](Cc1c[nH]cn1)NC(C)=O)[C@@H](C)O)[C@@H](C)O)C(C)C)C(=O)N[C@@H](C)C(=O)N[C@@H](Cc1c[nH]c2ccccc12)C(=O)N[C@@H](CC(C)C)C(=O)N[C@H](C(=O)N[C@@H](CCCCN)C(=O)NCC(=O)N[C@@H](CCCNC(=N)N)C(=O)NCC(=O)O)C(C)C [(N-acetyl-H)^7 -GLP-1(7-37)]			
+	CC[C@H](C)[C@H](NC(=O)[C@H](Cc1ccccc1)NC(=O)[C@H](CCC(=O)O)NC(=O)[C@H](CCCCN)NC(=O)[C@H](C)NC(=O)[C@H](C)NC(=O)[C@H](CCC(N)=O)NC(=O)CNC(=O)[C@H](CCC(=O)O)NC(=O)[C@H](CC(C)C)NC(=O)[C@H](Cc1ccc(O)cc1)NC(=O)[C@H](CO)NC(=O)[C@H](CO)NC(=O)[C@@H](NC(=O)[C@H](CC(=O)O)NC(=O)[C@H](CO)NC(=O)[C@@H](NC(=O)[C@H](Cc1ccccc1)NC(=O)[C@@H](NC(=O)CNC(=O)[C@H](CCC(=O)O)NC(=O)[C@H](C)NC(=O)[C@H](CCCCN)NC(C)=O)[C@@H](C)O)[C@@H](C)O)C(C)C)C(=O)N[C@@H](C)C(=O)N[C@@H](Cc1c[nH]c2ccccc12)C(=O)N[C@@H](CC(C)C)C(=O)N[C@H](C(=O)N[C@@H](CCCCN)C(=O)NCC(=O)N[C@@H](CCCNC(=N)N)C(=O)NCC(=O)O)C(C)C [(N-acetyl-K)^7 GLP-1 (7-37)]			
+	CC[C@H](C)[C@H](NC(=O)[C@H](Cc1ccccc1)NC(=O)[C@H](CCC(=O)O)NC(=O)[C@H](CCCCN)NC(=O)[C@H](C)NC(=O)[C@H](C)NC(=O)[C@H](CCC(N)=O)NC(=O)CNC(=O)[C@H](CCC(=O)O)NC(=O)[C@H](CC(C)C)NC(=O)[C@H](Cc1ccc(O)cc1)NC(=O)[C@H](CO)NC(=O)[C@H](CO)NC(=O)[C@@H](NC(=O)[C@H](CC(=O)O)NC(=O)[C@H](CO)NC(=O)[C@@H](NC(=O)[C@H](Cc1ccccc1)NC(=O)[C@@H](NC(=O)CNC(=O)[C@H](CCC(=O)O)NC(=O)[C@H](C)NC(=O)[C@H](Cc1c[nH]cn1)NC(C)C)[C@@H](C)O)[C@@H](C)O)C(C)C)C(=O)N[C@@H](C)C(=O)N[C@@H](Cc1c[nH]c2ccccc12)C(=O)N[C@@H](CC(C)C)C(=O)N[C@H](C(=O)N[C@@H](CCCCN)C(=O)NCC(=O)N[C@@H](CCCNC(=N)N)C(=O)NCC(=O)O)C(C)C [(N-isopropyl-H)^7 GLP-1(7-37), (N-isopropyl-H)^7 -GLP-1(7-37)]			
	CC[C@H](C)[C@H](NC(=O)[C@H](Cc1ccccc1)NC(=O)[C@H](CCC(=O)O)NC(=O)[C@H](CCCCN)NC(=O)[C@H](C)NC(=O)[C@H](C)NC(=O)[C@H](CCC(N)=O)NC(=O)CNC(=O)[C@H](CCC(=O)O)NC(=O)[C@H](CC(C)C)NC(=O)[C@H](Cc1ccc(O)cc1)NC(=O)[C@H](CO)NC(=O)[C@H](CO)NC(=O)[C@@H](NC(=O)[C@H](CC(=O)O)NC(=O)[C@H](CO)NC(=O)[C@@H](NC(=O)[C@H](Cc1ccccc1)NC(=O)[C@@H](NC(=O)CNC(=O)[C@H](CCC(=O)O)NC(=O)[C@H](C)NC(=O)[C@H](Cc1c[nH]cn1)NC(=O)[C@H](CCCNC(=N)N)NC(=O)[C@H](CCC(=O)O)NC(=O)[C@H](Cc1ccccc1)NC(=O)[C@H](CCC(=O)O)NC(=O)[C@H](CC(=O)O)NC(=O)[C@@H](N)Cc1c[nH]cn1)[C@@H](C)O)[C@@H](C)O)C(C)C)C(=O)N[C@@H](C)C(=O)N[C@@H](Cc1c[nH]c2ccccc12)C(=O)N[C@@H](CC(C)C)C(=O)N[C@H](C(=O)N[C@@H](CCCCN)C(=O)NCC(=O)N[C@@H](CCCNC(=N)N)C(=O)NCC(=O)O)C(C)C [GLP-1(1-37)]	> 1000 nM	2900 nM	
	CC[C@H](C)[C@H](NC(=O)[C@H](Cc1ccccc1)NC(=O)[C@H](CCC(=O)O)NC(=O)[C@H](CCCCN)NC(=O)[C@H](C)NC(=O)[C@H](C)NC(=O)[C@H](CCC(N)=O)NC(=O)CNC(=O)[C@H](CCC(=O)O)NC(=O)[C@H](CC(C)C)NC(=O)[C@H](Cc1ccc(O)cc1)NC(=O)[C@H](CO)NC(=O)[C@H](CO)NC(=O)[C@@H](NC(=O)[C@H](CC(=O)O)NC(=O)[C@H](CO)NC(=O)[C@@H](NC(=O)[C@H](Cc1ccccc1)NC(=O)[C@@H](NC(=O)CNC(=O)[C@H](CCC(=O)O)NC(=O)[C@H](C)NC(=O)[C@H](Cc1c[nH]cn1)NC(=O)[C@H](CCCNC(=N)N)NC(=O)[C@H](CCC(=O)O)NC(=O)[C@H](Cc1ccccc1)NC(=O)[C@@H](N)CCC(=O)O)[C@@H](C)O)[C@@H](C)O)C(C)C)C(=O)N[C@@H](C)C(=O)N[C@@H](Cc1c[nH]c2ccccc12)C(=O)N[C@@H](CC(C)C)C(=O)N[C@H](C(=O)N[C@@H](CCCCN)C(=O)NCC(=O)N[C@@H](CCCNC(=N)N)C(=O)NCC(=O)O)C(C)C [GLP-1(3-37)]	70 nM	81 nM	
	CC[C@H](C)[C@H](NC(=O)[C@H](Cc1ccccc1)NC(=O)[C@H](CCC(=O)O)NC(=O)[C@H](CCCCN)NC(=O)[C@H](C)NC(=O)[C@H](C)NC(=O)[C@H](CCC(N)=O)NC(=O)CNC(=O)[C@H](CCC(=O)O)NC(=O)[C@H](CC(C)C)NC(=O)[C@H](Cc1ccc(O)cc1)NC(=O)[C@H](CO)NC(=O)[C@H](CO)NC(=O)[C@@H](NC(=O)[C@H](CC(=O)O)NC(=O)[C@H](CO)NC(=O)[C@@H](NC(=O)[C@H](Cc1ccccc1)NC(=O)[C@@H](NC(=O)CNC(=O)[C@H](CCC(=O)O)NC(=O)[C@H](C)NC(=O)[C@H](Cc1c[nH]cn1)NC(=O)[C@H](CCCNC(=N)N)NC(=O)[C@H](CCC(=O)O)NC(=O)[C@@H](N)Cc1ccccc1)[C@@H](C)O)[C@@H](C)O)C(C)C)C(=O)N[C@@H](C)C(=O)N[C@@H](Cc1c[nH]c2ccccc12)C(=O)N[C@@H](CC(C)C)C(=O)N[C@H](C(=O)N[C@@H](CCCCN)C(=O)NCC(=O)N[C@@H](CCCNC(=N)N)C(=O)NCC(=O)O)C(C)C [GLP-1(4-37)]	130 nM	200 nM	
	CC[C@H](C)[C@H](NC(=O)[C@H](Cc1ccccc1)NC(=O)[C@H](CCC(=O)O)NC(=O)[C@H](CCCCN)NC(=O)[C@H](C)NC(=O)[C@H](C)NC(=O)[C@H](CCC(N)=O)NC(=O)CNC(=O)[C@H](CCC(=O)O)NC(=O)[C@H](CC(C)C)NC(=O)[C@H](Cc1ccc(O)cc1)NC(=O)[C@H](CO)NC(=O)[C@H](CO)NC(=O)[C@@H](NC(=O)[C@H](CC(=O)O)NC(=O)[C@H](CO)NC(=O)[C@@H](NC(=O)[C@H](Cc1ccccc1)NC(=O)[C@@H](NC(=O)CNC(=O)[C@H](CCC(=O)O)NC(=O)[C@H](C)NC(=O)[C@H](Cc1c[nH]cn1)NC(=O)[C@H](CCCNC(=N)N)NC(=O)[C@@H](N)CCC(=O)O)[C@@H](C)O)[C@@H](C)O)C(C)C)C(=O)N[C@@H](C)C(=O)N[C@@H](Cc1c[nH]c2ccccc12)C(=O)N[C@@H](CC(C)C)C(=O)N[C@H](C(=O)N[C@@H](CCCCN)C(=O)NCC(=O)N[C@@H](CCCNC(=N)N)C(=O)NCC(=O)O)C(C)C [GLP-1(5-37)]	150 nM		
	gastric inhibitory peptide [GIP]			ED50 nM Duplicate Assays (first value) ([2]; cAMP stimulation in RIN 1046-38 cells, first of duplicate assays): 10.0 nM; ED50 nM Duplicate Assays (second value) ([2]; cAMP stimulation in RIN 1046-38 cells, second of duplicate assays): 37.5 nM
